Assay [1] concerns Engineered connective tissues (ECT). As to the kind of experiment: ECT stiffness (Young's modulus) by ultimate tensile testing. The format is cell-based, human. The conditions noted are these: 5 ng/ml TGF-β1, day 10 of the drug effect testing phase (absolute day 13), 8 replicates. How it is done:
Reference ECT were generated and treated similar as described herein in Example 1. In contrast to the pole deflection analysis disclosed in Example 1 herein, 8 ECT were harvested for the ultimate tensile testing at the moment when the plateau was reached and before a drug solvent was applied with or without TGF-β1. Residual ECT were cultured for further 10 days. Then, macroscopic images were taken from the ECT on the poles to estimate their cross-sectional areas based on the observed ECT thicknesses. Ultimate tensile testing was performed with a dynamic mechanical analyzer (DMA). Therefore, ECT were loaded onto two hooks clamped to a DMA in a 37° C. tempered organ bath filled with PBS. Then, uniaxial stretch at a constant linear rate of approximately 1% (0.03 mm/s) was applied until the ECT ruptured. The recorded force traces were converted into stress-strain curves. The Young's modulus representing the stiffness of the ECT was analyzed by determining the slope of the linear part of curve within the elastic region (FIG. 3A). All measurements were performed in 8 replicates. […]

Assay [2] shares this test system. As to the kind of experiment: ECT contraction by pole deflection analysis (reference ECT +/- TGF-β1). Type of assay: cell-based, human. The following applies: 5 ng/ml TGF-β1 applied at day 4, day 10 of the drug effect testing phase (absolute day 13), 6 technical replicates. The source says: The general experimental procedure was identical for all used cells, including primary fibroblasts and iPSC-StC. Supporting information in view of the ECT model, in particular its generation, may also be found in Santos et al. (2021, Fibroblast Derived Human Engineered Connective Tissue for Screening Applications. J. Vis. Exp. e62700, doi: 10.3791/62700, PMID: 34487119), Santos et al. (2022, Using different geometries to modulate the cardiac fibroblast phenotype and the biomechanical properties of engineered connective tissues. Biomater Adv. 139:213041, PMID: 35909053), and EP20188364. In particular, acid solubilized, collagen type 1 was mixed 1:1 with 2× DMEM containing 20% fetal calf serum and antibiotics. […]
Pole deflection measurement and platforms are well-established in the art, cf. e.g. WO2017/207431 (also granted as DE 10 2016 110 328 B3). […] Pole deflection as a function of ECT compaction was calculated as follows: 100×(pole distanceday 0-pole distanceday x)/pole distanceday 0.
Reference ECT were analyzed, which were treated with a drug solvent in absence or presence of TGF-β1, with TGF-β1 application serving as additional reference with respect to pro-fibrotic drug characterization. […]

Assay [3] concerns BioEngineered Neuronal Organoids (BENOs). As to the kind of experiment: Multi-electrode array (MEA) recording of BENO network activity. The conditions noted are these: for Burst Frequency (Hz) / Interspike Interval in a burst / Network Burst (NB) Frequency / Number of Active Electrodes / Weighted Mean Firing Rate (Hz) / Burst Frequency (Hz), effect vs reference BENO / Interspike Interval in a burst (s), effect vs reference BENO / Network Burst (NB) Frequency, effect vs reference BENO / Number of Active Electrodes, effect vs reference BENO / Weighted Mean Firing Rate (Hz), effect vs reference BENO: CNQX 15 μM; for Burst frequency, change in words / Weighted mean firing rate, change in words: text and figure legend. The format is cell-based, human. The source says: BioEngineered Neuronal Organoids (BENOs) were generated in line with the BENO generation protocol provided in Zafeiriou et al. (Nature Communications, 2020, 11:3791, https://doi.org/10.1038/s41467-020-17521-w).
The method used for this illustrative example was a multi-electrode array (MEA) recording. In particular, six-well plates with 64 platinum microelectrodes arrays per well (0.04 MQ/microelectrode, 30 μm microelectrode diameter, 200 μm spacing) were coated with Matrigel™ 1:120 diluted in PBS for 1 h at room temperature prior seeding. One or two slices (thickness: 300 μm) were placed into a MEA well and immobilized by a concentrically coiled tungsten ring. 10-15 min recordings/2 h were performed every other day for up to 60 days using a Maestro pro MEA system (Axion Biosystems). Data recordings were automatically scheduled with the Axion Software (AxIS Navigator) using the manufacturer's Spontaneous Neural Configuration. Data analysis was performed using the manufacturer's standalone tools, Neural Metric Tool, and AxIS Metric Plotting Tool (Axion Biosystems). […] Spike bursts were identified using an ISI threshold requiring a minimum number of five spikes with a maximum ISI of 100 ms. Network Bursts (NB) were identified by an envelope algorithm with a threshold of 1.25, minimum IBI interval of 100 ms, 75% burst inclusion with a minimum of 10% active electrodes.

Assay [4] in a line: Pirfenidone IC50 in vitro.
[5] abbreviates: BENO day 50 to day 60, 10 min treatment, PIC 58 μM, 4 tissues.
Setting [6] is: BENO day 60, 10 min treatment, PIC 58 μM, threshold 2× SD.
Setting [7] is: BENO day 60, treated vs reference.
The mark [8] stands for this setting: BENO day 60, treated vs reference, listed as Picrotoxin.

The record followed here is patent US20260202397A1, “POTENCY ASSAY FOR PHARMACEUTICAL PRODUCTS” (REPAIRON MUSCLE UG, priority 2022, published 2026).

Values after ≈ are worked out from the molar mass of the structure shown. “Also recorded” adds a separate entry of the source.

In the case of “TGF-B1: pro-fibrotic cytokine applied at 5 ng/ml to reference ECT”, in assay [1], the “Young's modulus (kPa)” value turned out to be 76.4 kPa. For the same compound, the “Contraction (%)” value in assay [2] is recorded as 39.4%.

Turning to `C=C(C)[C@@H]1[C@H]2OC(=O)[C@@H]1[C@]1(O)C[C@H]3OC34C(=O)O[C@H]2[C@@]41C.CC(C)(O)[C@@H]1[C@H]2OC(=O)[C@@H]1[C@]1(O)C[C@H]3OC34C(=O)O[C@H]2[C@@]41C` (stereo partly shown) [PIC, Picrotoxin], in assay [3] (setting [5]), the “Burst Frequency (Hz)” value was 0.2 Hz, the “Interspike Interval in a burst” value is given as 0.02 s, the “Network Burst (NB) Frequency” value was determined as 0.09 and the “Number of Active Electrodes” value turned out to be 23. In assay [3] (setting [5]), the “Weighted Mean Firing Rate (Hz)” value came out at 4.7 Hz, the “Interspike Interval in a NB” value is 0.002 s, the “NB Duration” value came out at 1.4 ± 0.4 s and the NB percentage is 43 ± 42. The “Spontaneous activity, change in words” value in assay [3] (BENO day 60) was “increased”. Moreover, in assay [3] (setting [6]), the “Burst Frequency (Hz), effect vs reference BENO” value is on record as “↑ (>2SD increase)”; the “Interspike Interval in a burst (s), effect vs reference BENO” value is on record as “↔ (<2SD change)”; the “Network Burst (NB) Frequency, effect vs reference BENO” value is on record as “↑ (>2SD increase)”; the “Number of Active Electrodes, effect vs reference BENO” value is reported as “↔ (<2SD change)”. In addition, in assay [3] (setting [6]), the “Weighted Mean Firing Rate (Hz), effect vs reference BENO” value is “↑ (>2SD increase)”; the “Interspike Interval in a NB (s), effect vs reference BENO” value is on record as “↔ (<2SD change)”; the “NB Duration (s), effect vs reference BENO” value is on record as “↑ (>2SD increase)”; the “NB percentage, effect vs reference BENO” value is on record as “↔ (<2SD change)”. Also, in assay [3] (setting [7]), the “Network burst duration (network burst complexity), change in words” value was “decreased”; the “Network burst frequency, change in words” value is reported as “increased”; the “Burst frequency, change in words” value was “increase”; the “Weighted mean firing rate, change in words” value is “increase”. Also, in assay [3] (setting [8]), the “Burst frequency, change in words” value was “increases” and the “Weighted mean firing rate, change in words” value is on record as “increased”.

With `N#Cc1cc2[nH]c(=O)c(=O)[nH]c2cc1[N+](=O)[O-]` [CNQX, Cyanquixalin], in assay [3] (setting [5]), the “Burst Frequency (Hz)” value turned out to be 0.02 Hz, the “Interspike Interval in a burst” value was 0.03 s, the “Network Burst (NB) Frequency” value worked out at 0 and the “Number of Active Electrodes” value came out at 2. Further, in assay [3] (setting [5]), the “Weighted Mean Firing Rate (Hz)” value is on record as 0.6 Hz. Besides, in assay [3] (setting [6]), the “Burst Frequency (Hz), effect vs reference BENO” value is on record as “↔ (<2SD change)”; the “Interspike Interval in a burst (s), effect vs reference BENO” value is “↑ (>2SD increase)”; the “Network Burst (NB) Frequency, effect vs reference BENO” value is “↓ (>2SD decrease)”; the “Number of Active Electrodes, effect vs reference BENO” value was “↓ (>2SD decrease)”. Besides, the “Weighted Mean Firing Rate (Hz), effect vs reference BENO” value in assay [3] (setting [6]) was “↓ (>2SD decrease)”. The “Interspike interval in a burst, change in words” value in assay [3] (BENO day 60, after treatment) is “higher”. For the same compound, in assay [3] (setting [7]), the “Network burst frequency, change in words” value is “decrease”; the “Burst frequency, change in words” value is reported as “reduced to the predetermined threshold of 2× SD, though not exceeding it; also recorded: decrease; also recorded: reduced”; the “Weighted mean firing rate, change in words” value is recorded as “decrease; also recorded: reduced”.

In turn, `Cc1ccc(=O)n(-c2ccccc2)c1` [Pirfenidone] returned an IC50 in assay [4] of 0.43 mg/mL (≈ 2320 µM).

One may read the IC50 as the concentration that inhibits the measured activity by half.
